Experimental data reported in ChEMBL document CHEMBL2311319, “Discovery of novel 1,4-dihydropyridine-based PDE4 inhibitors” (Bioorg Med Chem Lett, 2013).
pIC50: −log10 of the molar value.

Key:
[1] = biological target: T1, 3',5'-cyclic-AMP phosphodiesterase 4B (Homo sapiens, UniProt Q07343); test: Inhibition of recombinant PDE4B1 (unknown origin) expressed in Sf9 cells at 30 uM pre-incubated with compound for 15 mins before incubation with cAMP substrate for 1 hr
[2] = biological target: T1, 3',5'-cyclic-AMP phosphodiesterase 4B; test: Inhibition of recombinant PDE4B1 (unknown origin) expressed in Sf9 cells pre-incubated with compound for 15 mins before incubation with cAMP substrate for 1 hr
[3] = biological target: 3',5'-cyclic-AMP phosphodiesterase 4D (Homo sapiens, UniProt Q08499); test: Inhibition of recombinant PDE4D2 (unknown origin) expressed in Sf9 cells pre-incubated with compound for 15 mins before incubation with cAMP substrate for 1 hr
RAW264.7 = test: Inhibition of LPS-induced TNFalpha production in mouse RAW264.7 cells pre-incubated with compound for 30 mins before LPS challenge by ELISA; assay type: functional, cell-based

T1 sequence (Q07343 whole entry): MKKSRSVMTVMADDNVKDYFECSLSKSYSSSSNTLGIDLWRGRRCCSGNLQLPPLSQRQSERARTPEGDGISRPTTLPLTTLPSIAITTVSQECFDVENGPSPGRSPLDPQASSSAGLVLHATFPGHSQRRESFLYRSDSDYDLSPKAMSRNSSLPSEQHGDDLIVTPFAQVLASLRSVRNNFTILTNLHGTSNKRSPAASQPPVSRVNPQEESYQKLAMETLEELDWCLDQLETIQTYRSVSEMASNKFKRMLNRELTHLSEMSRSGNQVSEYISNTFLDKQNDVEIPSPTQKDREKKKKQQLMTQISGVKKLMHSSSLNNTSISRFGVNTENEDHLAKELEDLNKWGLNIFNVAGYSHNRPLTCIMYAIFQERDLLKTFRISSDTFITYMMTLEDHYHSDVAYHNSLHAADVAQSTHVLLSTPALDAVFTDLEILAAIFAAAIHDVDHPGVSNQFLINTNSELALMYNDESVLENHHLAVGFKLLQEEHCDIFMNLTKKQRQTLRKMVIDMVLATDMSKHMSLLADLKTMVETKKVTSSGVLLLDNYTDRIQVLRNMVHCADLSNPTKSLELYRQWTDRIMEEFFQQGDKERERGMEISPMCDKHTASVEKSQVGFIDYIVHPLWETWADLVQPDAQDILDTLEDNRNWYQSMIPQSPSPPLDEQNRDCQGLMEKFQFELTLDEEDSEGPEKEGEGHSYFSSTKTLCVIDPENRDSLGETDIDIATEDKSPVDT
Sequence of 3',5'-cyclic-AMP phosphodiesterase 4D (Q08499 whole entry): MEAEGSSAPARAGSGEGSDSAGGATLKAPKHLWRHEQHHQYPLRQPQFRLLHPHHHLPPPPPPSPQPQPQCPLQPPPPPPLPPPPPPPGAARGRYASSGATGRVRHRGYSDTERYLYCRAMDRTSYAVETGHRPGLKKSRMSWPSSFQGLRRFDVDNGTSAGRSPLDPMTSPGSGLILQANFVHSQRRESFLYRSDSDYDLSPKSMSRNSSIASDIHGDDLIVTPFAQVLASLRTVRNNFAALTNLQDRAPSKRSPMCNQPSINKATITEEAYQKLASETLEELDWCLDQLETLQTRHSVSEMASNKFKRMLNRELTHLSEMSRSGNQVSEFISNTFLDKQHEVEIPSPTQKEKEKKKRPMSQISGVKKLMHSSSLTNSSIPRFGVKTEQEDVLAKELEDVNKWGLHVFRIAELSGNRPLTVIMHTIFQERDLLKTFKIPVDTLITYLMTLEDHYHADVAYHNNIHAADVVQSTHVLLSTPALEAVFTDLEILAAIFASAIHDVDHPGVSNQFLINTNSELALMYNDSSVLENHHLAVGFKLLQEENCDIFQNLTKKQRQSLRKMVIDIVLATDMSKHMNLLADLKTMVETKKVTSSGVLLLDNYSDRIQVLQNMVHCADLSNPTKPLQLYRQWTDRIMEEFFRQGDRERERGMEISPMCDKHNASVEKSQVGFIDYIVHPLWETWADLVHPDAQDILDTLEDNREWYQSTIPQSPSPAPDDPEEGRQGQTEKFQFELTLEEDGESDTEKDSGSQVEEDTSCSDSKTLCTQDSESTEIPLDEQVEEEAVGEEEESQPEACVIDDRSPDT

| Structure (SMILES) | inhibition [1] [%] | other results |
| --- | --- | --- |
| CCOC(=O)C1=CN(c2ccccc2)C=C(C(=O)OCC)C1c1ccc(Cl)cc1 | 30.5 | – |
| C=CCN1C=C(C(=O)OCC)C(c2ccc(Cl)cc2)C(C(=O)OCC)=C1 | 49.5 | – |
| CCCCCCCCCCCCCCCCN1C=C(C(=O)OCC)C(c2ccc(OC)cc2)C(C(=O)OCC)=C1 | 17 | – |
| CCOC(=O)C1=CN(CC2CCCCC2)C=C(C(=O)OCC)C1c1ccc(Cl)cc1 | 28 | – |
| CCOC(=O)C1=CN(c2ccc(OC)cc2)C=C(C(=O)OCC)C1c1ccc(Cl)cc1 | 33 | – |
| CCOC(=O)C1=CN(Cc2ccccc2Cl)C=C(C(=O)OCC)C1c1ccc(O)cc1 | 49 | – |
| CCOC(=O)C1=CN(Cc2ccc(C(F)(F)F)cc2)C=C(C(=O)OCC)C1c1ccc(O)cc1 | 35 | – |
| CCOC(=O)C1=CN(Cc2ccccc2OC)C=C(C(=O)OCC)C1C1CC1 | 48 | – |
| CCCCCCCCN1C=C(C(=O)OCC)C(c2ccc(OC)cc2)C(C(=O)OCC)=C1 | 25 | – |
| CCOC(=O)C1=CN(c2ccc(Cl)cc2)C=C(C(=O)OCC)C1Cc1ccccc1 | 57.5 | – |
| C=CCN1C=C(C(=O)OCC)C(c2ccc(O)cc2)C(C(=O)OCC)=C1 | 51.5 | – |
| CCOC(=O)C1=CN(c2ccc(Cl)cc2)C=C(C(=O)OCC)C1c1ccc(Cl)cc1 | 23 | – |

More lines, main results first:

| inhibition [1] [%] | Structure (SMILES) | other results |
| --- | --- | --- |
| 15 | CCOC(=O)C1=CN(Cc2ccc(Cl)cc2)C=C(C(=O)OCC)C1c1ccc(Cl)cc1 | – |
| 58 | CCOC(=O)C1=CN(Cc2ccccc2Cl)C=C(C(=O)OCC)C1c1ccc(OC)cc1 | – |
| 88 | CCOC(=O)C1=CN(Cc2ccc(OC)c(OC)c2)C=C(C(=O)OCC)C1c1cccc([N+](=O)[O-])c1 | pIC50 [2]: 5.80; pIC50 [3]: 5.54 |
| 42 | CCOC(=O)C1=CN(Cc2ccc3c(c2)OCO3)C=C(C(=O)OCC)C1c1ccc(OC)cc1 | – |
| 21 | CCOC(=O)C1=CN(Cc2ccc(C(F)(F)F)cc2)C=C(C(=O)OCC)C1c1ccc(OC)cc1 | – |
| 8 | CCOC(=O)C1=CN(Cc2ccc(Cl)cc2)C=C(C(=O)OCC)C1c1cccc(F)c1 | – |
| 78 | CCOC(=O)C1=CN(Cc2ccc(OC)c(OC)c2)C=C(C(=O)OCC)C1c1cccc(Cl)c1 | – |
| 31 | CCOC(=O)C1=CN(Cc2cccc(Cl)c2)C=C(C(=O)OCC)C1Cc1ccccc1 | – |
| 38 | CCOC(=O)C1=CN(Cc2ccc(OC)cc2)C=C(C(=O)OCC)C1c1ccc([N+](=O)[O-])cc1 | – |
| 28 | CCOC(=O)C1=CN(Cc2ccc(OC)cc2)C=C(C(=O)OCC)C1c1cccc(F)c1 | – |
| 95 | CCOC(=O)C1=CN(Cc2ccc(OC)c(OC)c2)C=C(C(=O)OCC)C1c1c[nH]c2ccccc12 | pIC50 [2]: 6.27; pIC50 [3]: 6.19; pIC50 (RAW264.7): 5.49 |
| 80 | CCOC(=O)C1=CN(Cc2ccc(OC)c(OC)c2)C=C(C(=O)OCC)C1c1ccc(Cl)cc1 | pIC50 [2]: 5.43; pIC50 [3]: 5.56 |
| 33 | CCOC(=O)C1=CN(Cc2ccccc2Cl)C=C(C(=O)OCC)C1c1ccccc1 | – |
| 79 | CCOC(=O)C1=CN(Cc2ccc(OC)c(OC)c2)C=C(C(=O)OCC)C1Cc1ccccc1 | – |
| 75 | CCOC(=O)C1=CN(Cc2ccc(OC)c(OC)c2)C=C(C(=O)OCC)C1c1cccc2ccccc12 | – |
| 23 | CCOC(=O)C1=CN(Cc2ccc(OC)cc2)C=C(C(=O)OCC)C1c1ccc(Cl)cc1 | – |
| 72 | CCOC(=O)C1=CN(Cc2ccc3c(c2)OCO3)C=C(C(=O)OCC)C1c1ccc(O)cc1 | – |
